In patent publication US20070225344A1, “Sulfonamide derivatives to treat infection with hepatitis C virus” (priority 2006, published 2007):

How the values were obtained:
[1] = biological target: T1, HCV RdRp NS5B d21BK (BK strain, 1b subtype) (Hepatitis C virus genotype 1b, UniProt P26663); assay: HCV polymerase (NS5B) RNA-dependent RNA polymerase inhibition, 33P-GTP filter assay; type: biochemical; settings: in vitro; NS5B BK strain (1b subtype), 24 nM enzyme, 2 h at room temperature; read-out: HCV Polymerase Median IC50
T1 construct: NS5B from the BK strain (1b subtype) is expressed in E. coli as a protein in which the 21 C-terminal amino acids are replaced; made in house; host or cells: E. coli
Text: The ability of the compounds of the present invention to inhibit hepatitis C polymerase was established by the following experimental procedure:
NS5B from the BK strain (1b subtype) is expressed in E. coli as a protein in which the 21 C-terminal amino acids are replaced with a short linker and a hexahistidine tag (GSHHHHHH). The purified protein is mixed with radioactive nucleotides and allowed to replicate a heteropolymeric RNA substrate, primed by an endogenous short hairpin, resulting in an approximately 760 nt product. The radioactive product is captured on a filter and quantitated after removal of the unincorporated nucleotides.
(1) Compounds 10 μl at 10 μg/ml in 15% DMSO
Add 20 μl enzyme mix into each well of the assay plate. Incubate compound and enzyme at room temperature for 15 minutes.
(3) Template Mix—Prepare Ahead.
Spin down a tube of RNA (5 μg/tube stored in 75% ethanol and 0.3 M sodium acetate) in a microcentrifuge for 20 min. at 4° C. One tube is enough for 1 to 1½ plates. Remove as much ethanol from the tube as possible by inverting the tube. Be gentle, pellet RNA may not adhere to the tube. Vacuum dry the RNA. Resuspend the RNA by adding 1 ml of DEPC water, close the cap of the tube tightly. To dissolve RNA, incubate RNA solution on ice for ˜60 min. and gently vortex. Spin briefly to ensure all RNA solution is down to the bottom of the tube before opening cap. Gently transfer RNA solution into a 5 ml or larger tube. Add another 3 ml of DEPC water (total 4 ml of volume).
Add the following volumes of reagents.
Add 20 μl template mix per reaction (i.e. 20 ng of POF per reaction or ˜3 nM)
(4) Incubate reaction at room temperature (22-25° C.) for 2 hours.
(5) Stop reaction by adding 50 μl of 170 mM EDTA.
Final concentration of EDTA is 85 mM.
(6) Prewet filters of Millipore Multiscreen filter plate by adding 200 μl of 0.5 M sodium phosphate buffer, pH 7.0 into each well. Let stand at room temperature for 2-3 min.
(7) Place the Multiscreen filter plate onto a Millipore Manifold and turn on vacuum to allow buffer to flow through. Turn off vacuum. Transfer 80 μl of the reaction product into each well of the filter plate. Let stand for 2-3 min. Turn on vacuum to filter reaction product.
(8) Turn off vacuum. Add 200 μl of 0.5 M sodium phosphate buffer, pH 7.0 into each well to wash filter. Turn on vacuum.
Repeat step (8) three more times.
(9) Remove polypropylene bottom. Spot dry filter at the bottom with paper towel. Air dry filter plate on a bench for 1 hr. Add 40 μl Super Mix scintillant. Seal top of the plate with a tape. Place plate into a Packard carrier or MicroBeta carrier.
(10) Count plate using a Packard Topcount or MicroBeta counter. Program 10 for ^33P in Top count or ^33P program in micro-beta.
Percent inhibition is calculated after background subtraction as a percent reduction of activity relative to the positive control (average value of the plate excluding the negative controls).

T1 sequence (P26663 2420-2997, looked up, natural form): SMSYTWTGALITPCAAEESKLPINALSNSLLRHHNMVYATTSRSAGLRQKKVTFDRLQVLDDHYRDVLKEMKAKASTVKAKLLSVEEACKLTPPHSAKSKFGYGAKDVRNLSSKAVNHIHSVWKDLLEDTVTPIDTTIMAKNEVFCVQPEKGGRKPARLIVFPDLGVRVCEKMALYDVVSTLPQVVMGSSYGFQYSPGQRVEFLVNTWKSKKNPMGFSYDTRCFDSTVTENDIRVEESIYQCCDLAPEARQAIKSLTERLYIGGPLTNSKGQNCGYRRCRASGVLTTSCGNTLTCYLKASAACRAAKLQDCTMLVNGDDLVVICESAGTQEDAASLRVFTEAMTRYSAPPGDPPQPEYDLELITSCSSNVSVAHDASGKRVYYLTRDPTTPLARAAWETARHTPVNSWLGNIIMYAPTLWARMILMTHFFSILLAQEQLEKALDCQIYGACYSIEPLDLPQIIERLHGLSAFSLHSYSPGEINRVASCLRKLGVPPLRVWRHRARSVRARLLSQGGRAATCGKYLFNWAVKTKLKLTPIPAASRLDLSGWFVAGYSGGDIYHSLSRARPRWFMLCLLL

With O=C(O)[C@@H]1CCCN1S(=O)(=O)c1cc(Cl)cc(Cl)c1O [Example 11, 1-[(3,5-dichloro-2-hydroxyphenyl)sulfonyl]-L-proline] the melting point was 107.4 °C and the IC50 [1] was 890 nM.

Work on O=C(O)[C@@H]1CCCCN1S(=O)(=O)c1cc(Cl)cc(Br)c1O [Example 39, (2S)-1-[(3-bromo-5-chloro-2-hydroxyphenyl)sulfonyl]piperidine-2-carboxylic acid] yielded an IC50 [1] of 450 nM.

With O=C(O)[C@H]1CCCCN1S(=O)(=O)c1cc(Cl)cc(Br)c1O [Example 40, (2R)-1-[(3-bromo-5-chloro-2-hydroxyphenyl)sulfonyl]piperidine-2-carboxylic acid] the IC50 [1] was 1160 nM.

In the case of O=C(O)[C@@H]1CCCCN1S(=O)(=O)c1cc(F)cc(Cl)c1O [Example 41, (2S)-1-[(3-chloro-5-fluoro-2-hydroxyphenyl)sulfonyl]piperidine-2-carboxylic acid], the IC50 [1] is reported as 1890 nM.

For O=C(O)[C@H]1CCCCN1S(=O)(=O)c1cc(Cl)cc(Cl)c1O [Example 42, (2R)-1-[(3,5-dichloro-2-hydroxyphenyl)sulfonyl]piperidine-2-carboxylic acid], the IC50 [1] was 2010 nM.

O=C(O)[C@@H]1CCCCN1S(=O)(=O)c1cc(Cl)cc(Cl)c1O [Example 43, (2S)-1-[(3,5-dichloro-2-hydroxyphenyl)sulfonyl]piperidine-2-carboxylic acid] showed an IC50 [1] of 7100 nM.

Work on Cc1cc(N)c(S(=O)(=O)N2CCCC[C@@H]2C(=O)O)cc1Cl [Example 44, (2R)-1-[(2-amino-5-chloro-4-methylphenyl)sulfonyl]piperidine-2-carboxylic acid] yielded an IC50 [1] of 7900 nM.

In the case of O=C(O)[C@@H]1CSCN1S(=O)(=O)c1cc(Cl)c(Cl)c(Cl)c1O [Example 45, (4R)-3-[(3,4,5-trichloro-2-hydroxyphenyl)sulfonyl]-1,3-thiazolidine-4-carboxylic acid], the IC50 [1] is reported as 50 nM.

O=C(O)[C@H]1CSCN1S(=O)(=O)c1cc(Cl)c(Cl)c(Cl)c1O [Example 46, (4S)-3-[(3,4,5-trichloro-2-hydroxyphenyl)sulfonyl]-1,3-thiazolidine-4-carboxylic acid] gave an IC50 [1] of 260 nM.

For O=C(O)[C@@H]1CSCN1S(=O)(=O)c1cc(Cl)cc(Cl)c1O [Example 47, (4R)-3-[(3,5-dichloro-2-hydroxyphenyl)sulfonyl]-1,3-thiazolidine-4-carboxylic acid], the IC50 [1] was 240 nM.

With O=C(O)[C@@H]1CSCN1S(=O)(=O)c1cc(Br)cc(Br)c1O [Example 48, (4R)-3-[(3,5-dibromo-2-hydroxyphenyl)sulfonyl]-1,3-thiazolidine-4-carboxylic acid] the IC50 [1] was 460 nM.

In the case of O=C(O)[C@@H]1CSCN1S(=O)(=O)c1cc(F)cc(Cl)c1O [Example 49, (4R)-3-[(3-chloro-5-fluoro-2-hydroxyphenyl)sulfonyl]-1,3-thiazolidine-4-carboxylic acid], the IC50 [1] is reported as 2130 nM.

Compound O=C(O)[C@H]1CSCN1S(=O)(=O)c1cc(Cl)cc(Br)c1O [Example 50, (4S)-3-[(3-bromo-5-chloro-2-hydroxyphenyl)sulfonyl]-1,3-thiazolidine-4-carboxylic acid] has an IC50 [1] of 870 nM.

In the case of O=C(O)[C@H]1CSCN1S(=O)(=O)c1cc(Cl)cc(Cl)c1O [Example 51, (4S)-3-[(3,5-dichloro-2-hydroxyphenyl)sulfonyl]-1,3-thiazolidine-4-carboxylic acid], the IC50 [1] is reported as 1710 nM.

With O=S(=O)(c1cc(Cl)cc(Cl)c1O)N1CCSC1 [Example 52, 2,4-dichloro-6-(1,3-thiazolidin-3-ylsulfonyl)phenol] the IC50 [1] was 2350 nM.

Cc1cc(N)c(S(=O)(=O)N2CSC[C@@H]2C(=O)O)cc1Cl [Example 53, (4S)-3-[(2-amino-5-chloro-4-methylphenyl)sulfonyl]-1,3-thiazolidine-4-carboxylic acid] showed an IC50 [1] of 3050 nM.

Work on Cc1cc(S(=O)(=O)N2CSC[C@H]2C(=O)O)c(N)cc1Cl [Example 54, (4R)-3-[(2-amino-4-chloro-5-methylphenyl)sulfonyl]-1,3-thiazolidine-4-carboxylic acid] yielded an IC50 [1] of 4750 nM.

Cc1cc(S(=O)(=O)N2CSC[C@@H]2C(=O)O)c(N)cc1Cl [Example 55, (4S)-3-[(2-amino-4-chloro-5-methylphenyl)sulfonyl]-1,3-thiazolidine-4-carboxylic acid] gave an IC50 [1] of 7500 nM.

O=C(O)[C@@H]1CSCN1S(=O)(=O)c1cc(Cl)cc(Br)c1O [Example 56, (4R)-3-[(3-bromo-5-chloro-2-hydroxyphenyl)sulfonyl]-1,3-thiazolidine-4-carboxylic acid] gave an IC50 [1] of 11200 nM.

O=C(O)[C@H]1CSCN1S(=O)(=O)c1cc(F)cc(Cl)c1O [Example 57, (4S)-3-[(3-chloro-5-fluoro-2-hydroxyphenyl)sulfonyl]-1,3-thiazolidine-4-carboxylic acid] gave an IC50 [1] of 14400 nM.

For Cc1cc(N)c(S(=O)(=O)N2CSC[C@H]2C(=O)O)cc1Cl [Example 58, (4R)-3-[(2-amino-5-chloro-4-methylphenyl)sulfonyl]-1,3-thiazolidine-4-carboxylic acid], the IC50 [1] was 1980 nM.
